Data published in patent US20090069394A1, “CANCER TREATMENT WITH EPOTHILONES” (priority 2003, published 2009).

Columns and labels:
[1] = test system: Human epidermoid carcinoma KB-8511 cells; assay: KB-8511 human tumor xenograft model, loading/maintenance dosage regimens; type: in vivo, BALB/c nude mice
Protocol: 7,11-Dihydroxy-8,8,10,12,16-pentamethyl-3-[1-methyl-2-(2-methylsulfanyl-thiazol-4-yl)-vinyl]-4,17-dioxa-bicyclo[14.1.0]heptadecane-5,9-dione is dissolved in PEG300 and immediately diluted with saline (0.9% w/v NaCl) to the desired final concentration to be administered to mice as. The injected volume is 10 ml/kg i.v. Formulations are prepared immediately before use. Adriablastin/EÊ (Pharmacia and Upjohn) is purchased as a 2 mg/mL solution, and diluted with saline (0.9% NaCl) to prepare the 0.3 mg/mL solution used to treat animals. Taxol. (Bristol-Myers Squibb AG) is purchased as a 6 mg/ml solution, and diluted with saline to prepare the 1.5 mg/ml solution used to treat animals.
Human epidermoid carcinoma KB-8511 cells are obtained from Dr R. M. Baker, Roswell, Park Memorial Institute (Buffalo, N.Y., USA). Because of pgp170 overexpression, these cells are multi-drug resistant (Akiyama, et al 1985). KB-8511 cells are cultured as previously described.
The experimental details of the human tumor xenograft model has been described previously. A maximum of 10 female nude mice are kept under sterile conditions (type III cage, in an OHC zone) with free access to food and water. […] 7,11-Dihydroxy-8,8,10,12,16-pentamethyl-[1-methyl-2-(2-methylsulfanyl-thiazol-4-yl)-vinyl]-4,17-dioxa-bicyclo[14.1.0]heptadecane-5,9-dione is administered i.v. and tumor volumes and body weights are measured twice per week. Tumor volumes are determined by using callipers for measurement of longest (considered as Length) and shortest (considered as Diameter) dimensions of each tumors, and according to the formula Length×Diameter2×δ/6. Tumor growth and body weights are monitored twice weekly. When mentioned, antitumor activity is expressed as TIC % (mean increase of tumor volumes of treated animals divided by the mean increase of tumor volumes of control animals multiplied by 100) and/or as Tumor Regression (Reg %), calculated as ((mean tumor volume at the start of treatment minus mean tumor volume)/mean tumor volume at the start of treatment)×100. […]

[2] = Tolerability (body weight) in KB-8511 tumor-bearing mice; type: in vivo, BALB/c nude mice
Protocol: The experimental details of the human tumor xenograft model has been described previously. A maximum of 10 female nude mice are kept under sterile conditions (type III cage, in an OHC zone) with free access to food and water. KB-8511 tumors are established by subcutaneous injection of cells (2×10^6 cells in 100 μL PBS). The resulting tumors (at a size of 700 to 1000 mm3) are passaged in vivo at least 3 times prior to chemotherapy experimentation, and tumor-bearing mice are treated with Adriablastin/EÊ at 3 mg/kg (10 mL/kg) every week, in order to keep high levels of pgp170 expression. Tumor fragments of about 25 mg are implanted subcutaneously into the left flank of the animals with a 13 gauge trocar needle under Forene/EÊ (Abbott, Switzerland) anesthesia. Unless otherwise stated, treatments are always initiated when the mean tumor volume in each group reached 100 mm3. […] 7,11-Dihydroxy-8,8,10,12,16-pentamethyl-[1-methyl-2-(2-methylsulfanyl-thiazol-4-yl)-vinyl]-4,17-dioxa-bicyclo[14.1.0]heptadecane-5,9-dione is administered i.v. and tumor volumes and body weights are measured twice per week. Tumor volumes are determined by using callipers for measurement of longest (considered as Length) and shortest (considered as Diameter) dimensions of each tumors, and according to the formula Length×Diameter2×δ/6. Tumor growth and body weights are monitored twice weekly. […]

[3] = design: species or system BALB/c nude mice; conditions: mouse, in vivo
Protocol: BALB/c nude mice bearing KB-8511 xenograft tumors (initial volume of 250 mm3) were treated using various loading and maintenance dosage regimens to probe the validity of such regimens and to validate the predictions obtained with the PK-PD model. […] The kinetics of body weight loss on some of the tested loading and maintenance dosage regimens (L/MDR) were more benign (i.e. less fluctuating) than those observed on the corresponding fixed dosage regimens (FDR). […] It is concluded that the loading and maintenance dosing concept, by taking into account the very slow elimination rate of NVP-ABJ879, appears to represent an alternative dosing schemeunder which this drug can be dosed weekly.

[4] = cited from earlier work
[5] = test system: colorectal, renal, prostatic, pancreatic, gastric and brain cancers; conditions: cited from earlier work

Row | Compound | tumor relapse ([1]; 1.5/0.5 mg/kg dosing) | antitumor activity where tolerability improved (dose optimization) ([1]; initial tumor volume 100 mm3, tolerability assessed on body weight change) | antitumor activity ([1]; loading and maintenance 1.5 mg/kg-0.5 mg/kg or 2.1 mg/kg-0.7 mg/kg, weekly i.v., initial tumor volume 250 mm3) | tolerability (stabilization of the body weight loss) ([2]; loading and maintenance 1.5 mg/kg-0.5 mg/kg or 2.1 mg/kg-0.7 mg/kg, weekly i.v.) | kinetics of body weight loss ([2]; some loading and maintenance dosage regimens (L/MDR) versus corresponding fixed dosage regimens (FDR)) | elimination rate [3] | solubility in water [4] | clinical activity as a single agent [5]
1 | CSc1nc(C=C(C)C2CC3OC3(C)CCCC(C)C(O)C(C)C(=O)C(C)(C)C(O)CC(=O)O2)cs1 (centres unmarked) [7,11-Dihydroxy-8,8,10,12,16-pentamethyl-3-[1-methyl-2-(2-methylsulfanyl-thiazol-4-yl)-vinyl]-4,17-dioxa-bicyclo[14.1.0]heptadecane-5,9-dione] | tumor relapse was observed in some of the animals | reduced antitumor activity | strong antitumor activity | enhanced tolerability | more benign | very slow |  | 
2 | CC(=O)O[C@H]1C(=O)[C@@]2(C)[C@H]([C@H](OC(=O)c3ccccc3)[C@]3(O)C[C@H](OC(=O)[C@H](O)[C@@H](NC(=O)c4ccccc4)c4ccccc4)C(C)=C1C3(C)C)[C@]1(OC(C)=O)CO[C@@H]1C[C@@H]2O [TAXOL®, paclitaxel] |  |  |  |  |  |  | extremely low | poorly active clinically
